Assay results as given in patent US9693556B2, “Herbicidal pyridazinone derivatives” (SYNGENTA LIMITED, priority 2011, dated 2017).

Key:
Assay type in all cases: in vivo
[1] = tested on: Alopecurus myosuroides (ALOMY); test: Post-emergence herbicidal glasshouse test on Alopecurus myosuroides; details: post-emergence; 1000 g/h; evaluated after 13 days
In short: (§1)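 Application rate 1000 g/h, formulated in acetone/water (50:50) with 0.5% Tween 20 and sprayed onto pots sown 1 day (pre-emergence) or 8 days (post-emergence) earlier. Evaluation at 13 days rated damage from 1 (0-19%) to 5 (80-100%).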

[2] = tested on: Echinochloa crus-galli (ECHCG); test: Post-emergence herbicidal glasshouse test on Echinochloa crus-galli; details: post-emergence; 1000 g/h; evaluated after 13 days
In short: as §1

[3] = tested on: Ipomoea hederacea (IPOHE); test: Pre-emergence herbicidal glasshouse test on Ipomoea hederacea; details: pre-emergence; 1000 g/h; evaluated after 13 days
In short: as §1

Setaria faberi (SETFA) [4] = test: Post-emergence herbicidal glasshouse test on Setaria faberi; details: post-emergence; 1000 g/h; evaluated after 13 days
In short: as §1

[5] = tested on: Amaranthus retoflexus (AMARE); test: Post-emergence herbicidal glasshouse test on Amaranthus retoflexus; details: post-emergence; 1000 g/h; evaluated after 13 days
In short: as §1

Solanum nigrum (SOLNI) [6] = test: Post-emergence herbicidal glasshouse test on Solanum nigrum; details: post-emergence; 1000 g/h; evaluated after 13 days
In short: as §1

[7] = tested on: Amaranthus retoflexus (AMARE); test: Pre-emergence herbicidal glasshouse test on Amaranthus retoflexus; details: pre-emergence; 1000 g/h; evaluated after 13 days
In short: as §1

[8] = tested on: Echinochloa crus-galli (ECHCG); test: Pre-emergence herbicidal glasshouse test on Echinochloa crus-galli; details: pre-emergence; 1000 g/h; evaluated after 13 days
In short: as §1

Solanum nigrum (SOLNI) [9] = test: Pre-emergence herbicidal glasshouse test on Solanum nigrum; details: pre-emergence; 1000 g/h; evaluated after 13 days
In short: as §1

[10] = tested on: Alopecurus myosuroides (ALOMY); test: Pre-emergence herbicidal glasshouse test on Alopecurus myosuroides; details: pre-emergence; 1000 g/h; evaluated after 13 days
In short: as §1

Setaria faberi (SETFA) [11] = test: Pre-emergence herbicidal glasshouse test on Setaria faberi; details: pre-emergence; 1000 g/h; evaluated after 13 days
In short: as §1

[12] = tested on: Ipomoea hederacea (IPOHE); test: Post-emergence herbicidal glasshouse test on Ipomoea hederacea; details: post-emergence; 1000 g/h; evaluated after 13 days
In short: as §1

Row | Structure (SMILES) | POST Application ALOMY herbicidal damage (five point scale) [1] | POST Application ECHCG herbicidal damage (five point scale) [2] | PRE Application IPOHE herbicidal damage (five point scale) [3] | POST Application SETFA herbicidal damage (five point scale) (Setaria faberi (SETFA) [4]) | POST Application AMARE herbicidal damage (five point scale) [5] | POST Application SOLNI herbicidal damage (five point scale) (Solanum nigrum (SOLNI) [6]) | PRE Application AMARE herbicidal damage (five point scale) [7] | PRE Application ECHCG herbicidal damage (five point scale) [8] | PRE Application SOLNI herbicidal damage (five point scale) (Solanum nigrum (SOLNI) [9]) | PRE Application ALOMY herbicidal damage (five point scale) [10] | PRE Application SETFA herbicidal damage (five point scale) (Setaria faberi (SETFA) [11]) | POST Application IPOHE herbicidal damage (five point scale) [12]
1 | Cn1ncc(-n2ccc(C(F)(F)F)c(-c3cccc(F)c3)c2=O)c(O)c1=O [Compound 7.012] | 5 (5=80-100% damage) | 5 (5=80-100% damage) | 1 (1=0-19% damage) | 5 (5=80-100% damage) | 5 (5=80-100% damage) | 5 (5=80-100% damage) | 5 (5=80-100% damage) | 5 (5=80-100% damage) | 5 (5=80-100% damage) | 5 (5=80-100% damage) | 5 (5=80-100% damage) | 5 (5=80-100% damage)
2 | CC(C)c1cccc(-c2c(C(F)(F)F)ccn(-c3cnn(C)c(=O)c3O)c2=O)c1 [Compound 7.014] | 1 (1=0-19% damage) | 5 (5=80-100% damage) | 1 (1=0-19% damage) | 4 (4=60-79% damage) | 5 (5=80-100% damage) | 5 (5=80-100% damage) | 5 (5=80-100% damage) | 3 (3=40-59% damage) | 5 (5=80-100% damage) | 3 (3=40-59% damage) | 4 (4=60-79% damage) | 3 (3=40-59% damage)
3 | COc1ccc(C(C)C)cc1-c1c(C(F)(F)F)ccn(-c2cnn(C)c(=O)c2O)c1=O [Compound 7.015] | 2 (2=20-39% damage) | 4 (4=60-79% damage) | 4 (4=60-79% damage) | 3 (3=40-59% damage) | 5 (5=80-100% damage) | 5 (5=80-100% damage) | 5 (5=80-100% damage) | 3 (3=40-59% damage) | 5 (5=80-100% damage) | 3 (3=40-59% damage) | 4 (4=60-79% damage) | 3 (3=40-59% damage)
4 | CCOc1cccc(-c2c(C(F)(F)F)ccn(-c3cnn(C)c(=O)c3O)c2=O)c1 [Compound 7.016] | 2 (2=20-39% damage) | 2 (2=20-39% damage) | 1 (1=0-19% damage) | 2 (2=20-39% damage) | 5 (5=80-100% damage) | 5 (5=80-100% damage) | 5 (5=80-100% damage) | 2 (2=20-39% damage) | 5 (5=80-100% damage) | 2 (2=20-39% damage) | 2 (2=20-39% damage) | 1 (1=0-19% damage)
5 | Cn1ncc(-n2ccc(C(F)(F)F)c(-c3cc(F)c(F)c(F)c3)c2=O)c(O)c1=O [Compound 7.017] | 5 (5=80-100% damage) | 5 (5=80-100% damage) | 4 (4=60-79% damage) | 5 (5=80-100% damage) | 5 (5=80-100% damage) | 5 (5=80-100% damage) | 5 (5=80-100% damage) | 5 (5=80-100% damage) | 5 (5=80-100% damage) | 5 (5=80-100% damage) | 5 (5=80-100% damage) | 5 (5=80-100% damage)
6 | Cn1ncc(-n2ccc(C(F)(F)F)c(-c3cccc(C(F)(F)F)c3)c2=O)c(O)c1=O [Compound 7.018] | 5 (5=80-100% damage) | 5 (5=80-100% damage) | 2 (2=20-39% damage) | 5 (5=80-100% damage) | 5 (5=80-100% damage) | 5 (5=80-100% damage) | 5 (5=80-100% damage) | 5 (5=80-100% damage) | 5 (5=80-100% damage) | 5 (5=80-100% damage) | 5 (5=80-100% damage) | 3 (3=40-59% damage)
7 | Cn1ncc(-n2ccc(C(F)(F)F)c(-c3cccc(C#N)c3)c2=O)c(O)c1=O [Compound 7.019] | 5 (5=80-100% damage) | 5 (5=80-100% damage) | 2 (2=20-39% damage) | 5 (5=80-100% damage) | 5 (5=80-100% damage) | 5 (5=80-100% damage) | 5 (5=80-100% damage) | 5 (5=80-100% damage) | 5 (5=80-100% damage) | 5 (5=80-100% damage) | 5 (5=80-100% damage) | 2 (2=20-39% damage)
8 | COc1cc(-c2c(C(F)(F)F)ccn(-c3cnn(C)c(=O)c3O)c2=O)cc(OC)c1OC [Compound 7.021] | 5 (5=80-100% damage) | 5 (5=80-100% damage) | 4 (4=60-79% damage) | 5 (5=80-100% damage) | 5 (5=80-100% damage) | 5 (5=80-100% damage) | 5 (5=80-100% damage) | 5 (5=80-100% damage) | 5 (5=80-100% damage) | 5 (5=80-100% damage) | 5 (5=80-100% damage) | 4 (4=60-79% damage)
9 | Cn1ncc(-n2ccc(C(F)(F)F)c(-c3cc(Cl)cc(Cl)c3)c2=O)c(O)c1=O [Compound 7.022] | 4 (4=60-79% damage) | 5 (5=80-100% damage) | 2 (2=20-39% damage) | 5 (5=80-100% damage) | 5 (5=80-100% damage) | 5 (5=80-100% damage) | 5 (5=80-100% damage) | 5 (5=80-100% damage) | 5 (5=80-100% damage) | 5 (5=80-100% damage) | 5 (5=80-100% damage) | 2 (2=20-39% damage)
